Article PMC7968374 (Bioorganic & medicinal chemistry, 2021)

Target: Hsp27c (Homo sapiens, UniProt P04792)
Test: STD-NMR binding experiment
Settings: Figure S2

Sequence of Hsp27c (P04792 79-176): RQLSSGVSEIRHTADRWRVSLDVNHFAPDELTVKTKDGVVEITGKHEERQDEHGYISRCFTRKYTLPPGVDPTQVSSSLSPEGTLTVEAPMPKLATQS

binding to Hsp27c in STD-NMR: bound
SMILES: Nc1cccnc1Oc1ccc(F)cc1F [Compound 4, 2-(2,4-difluorophenoxy)pyridin-3-amine]
